Laboratory results from publication PMC11626197 (Proceedings of the National Academy of Sciences of the …, 2024).
Numbered stars: 1 amine (or outer) side, 2 acyl side, 3 side chain; on linkers, the order of the positions; unused ones are H or OH. Bridge positions count the residues as written; N and C are the ends. Square brackets hold non-standard residues; d marks the D form. Ends that are not written are not given here. Peptide text beside a SMILES is read from it. ξ: configuration not given here. ξLeu(ψCOCO) = CC(C)CC(N[*:1])C(=O)C(=O)[*:2]; X1 = CSCCC(N[*:1])C(=O)C(=O)[*:2]

Experiments:
HeLa = test: Cell detachment in HeLa cells; type: cell-based; settings: HeLa cell line
MC57G fibroblast cells = settings: for cytotoxic effects: LIVE/DEAD staining, 2 days post-treatment
[1] = test system: lymphocytic choriomeningitis virus (LCMV); settings: for IC50: 1 h
Huh7 = test: Cell detachment in Huh7 cells; type: cell-based; settings: Huh7 cell line
[2] = test system: herpes simplex virus (HSV); settings: for IC50: 42 h; for antiviral activity: HSV, result in words
influenza A virus (IAV) = test: Antiviral assay against IAV; type: cell-based, IAV strain A/WSN/1933 (H1N1); settings: result in words
[3] = biological target: T1, human neutrophil elastase (Homo sapiens, UniProt P08246); test: Human neutrophil elastase inhibition assay; type: biochemical; settings: for protease inhibitory activity: human neutrophil elastase, result in words
T1 sequence (P08246 30-267): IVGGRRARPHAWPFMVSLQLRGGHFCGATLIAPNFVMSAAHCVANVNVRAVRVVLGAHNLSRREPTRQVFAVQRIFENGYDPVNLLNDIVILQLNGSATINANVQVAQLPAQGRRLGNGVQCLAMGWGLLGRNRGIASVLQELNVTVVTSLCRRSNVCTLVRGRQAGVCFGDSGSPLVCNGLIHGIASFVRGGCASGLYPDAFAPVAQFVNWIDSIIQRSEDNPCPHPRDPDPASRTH

chymotrypsin = chymotrypsin (Bos taurus, UniProt P00766); test: Chymotrypsin inhibition assay; type: biochemical; settings: for protease inhibitory activity: chymotrypsin, result in words
human cathepsin B = human cathepsin B (Homo sapiens, UniProt P07858); test: Cathepsin B inhibition assay; type: biochemical; settings: for protease inhibitory activity: cathepsin B, result in words

| Compound | cell detachment (HeLa) | cytotoxic effects (MC57G fibroblast cells) | concentration at which cell detachment from the assay plates was observed (MC57G fibroblast cells; low levels / slight detachment) | IC50 [1] [µM] | cell detachment (Huh7) | IC50 [2] [µM] | antiviral activity (influenza A virus (IAV)) | protease inhibitory activity [3] | protease inhibitory activity (chymotrypsin) | protease inhibitory activity (human cathepsin B) | antiviral activity [1] | antiviral activity [2] | IC50 [3] [µM] | IC50 (chymotrypsin) [µM] | IC50 (human cathepsin B) [µM] |
| --- | --- | --- | --- | --- | --- | --- | --- | --- | --- | --- | --- | --- | --- | --- | --- |
| CC[C@H](C)[C@H](N)C(=O)N[C@@H](CC(N)=O)C(=O)N[C@@H](C)C(=O)N[C@H](C(=O)NCC(=O)N[C@@H](CCC(N)=O)C(=O)N[C@@H](CCCNC(=N)N)C(=O)N[C@H](C(=O)N[C@@H](CC(=O)O)C(=O)N[C@@H](CO)C(=O)N[C@@H](CO)C(=O)N[C@H](C(=O)N[C@@H](Cc1ccccc1)C(=O)N[C@H](C(=O)N[C@@H](Cc1c[nH]cn1)C(=O)N[C@H]1CSSC[C@@H](C(=O)NCC(=O)N[C@H](C(=O)N[C@@H](C)C(=O)NC(CC(C)C)C(=O)C(=O)NCC(=O)N[C@@H](CO)C(=O)N[C@H](C(=O)N[C@H](C(=O)N[C@@H](CC(=O)O)C(=O)N2CCC[C@H]2C(=O)N[C@@H](Cc2c[nH]cn2)C(=O)N[C@@H](CCCNC(=N)N)C(=O)N[C@@H](Cc2ccccc2)C(=O)N[C@@H](CC(=O)O)C(=O)N[C@@H](CCSC)C(=O)N[C@@H](CC(C)C)C(=O)N2CCC[C@H]2C(=O)O)[C@@H](C)CC)C(C)C)C(C)C)NC(=O)[C@H](C(C)C)NC(=O)[C@H](Cc2ccccc2)NC(=O)[C@H](Cc2ccccc2)NC(=O)[C@H](CC(=O)O)NC1=O)[C@@H](C)O)C(C)C)[C@@H](C)CC)[C@@H](C)O (stereo partly shown) [Compound 4, RasA*-Tyn] (H-INATGQRIDSSVFTHCDFFVCGVA[ξLeu(ψCOCO)]GSVIDPHRFDMLP-OH; disulfide 16-21; N-terminus assumed) | not detected | no significant cytotoxic effects | above 50 µM | 15.2 | not detected | 28.8 | – | – | – | – | – | – | – | – | – |
| CC[C@H](C)[C@H](N)C(=O)N[C@@H](CC(N)=O)C(=O)N[C@@H](C)C(=O)N[C@H](C(=O)NCC(=O)N[C@@H](CCC(N)=O)C(=O)N[C@@H](CCCNC(=N)N)C(=O)N[C@H](C(=O)N[C@@H](CC(=O)O)C(=O)N[C@@H](CO)C(=O)N[C@@H](CO)C(=O)N[C@H](C(=O)N[C@@H](Cc1ccccc1)C(=O)N[C@H](C(=O)N[C@@H](Cc1c[nH]cn1)C(=O)N[C@H]1CSSC[C@@H](C(=O)NCC(=O)N[C@H](C(=O)N[C@@H](C)C(=O)N[C@@H](CC(C)C)C(=O)N[C@@H](Cc2ccc(O)cc2)C(=O)NCC(=O)N[C@@H](CO)C(=O)N[C@H](C(=O)N[C@H](C(=O)N[C@@H](CC(=O)O)C(=O)N2CCC[C@H]2C(=O)N[C@@H](Cc2c[nH]cn2)C(=O)N[C@@H](CCCNC(=N)N)C(=O)N[C@@H](Cc2ccccc2)C(=O)N[C@@H](CC(=O)O)C(=O)N[C@@H](CCSC)C(=O)N[C@@H](CC(C)C)C(=O)N2CCC[C@H]2C(=O)O)[C@@H](C)CC)C(C)C)C(C)C)NC(=O)[C@H](C(C)C)NC(=O)[C@H](Cc2ccccc2)NC(=O)[C@H](Cc2ccccc2)NC(=O)[C@H](CC(=O)O)NC1=O)[C@@H](C)O)C(C)C)[C@@H](C)CC)[C@@H](C)O [Compound 6, RasA*] (H-INATGQRIDSSVFTHCDFFVCGVALYGSVIDPHRFDMLP-OH; disulfide 16-21; N-terminus assumed) | – | – | – | > 200 | – | > 200 | did not exhibit any protease inhibitory and antiviral activity | did not exhibit any protease inhibitory and antiviral activity | did not exhibit any protease inhibitory and antiviral activity | did not exhibit any protease inhibitory and antiviral activity | did not exhibit any protease inhibitory and antiviral activity | did not exhibit any protease inhibitory and antiviral activity | – | – | – |
| GTVTGSILTPIDYGCFNPFLCSVAMYGGVIDPIRFPNAWREL (disulfide 15-21) [Compound 5, G-RcsA*] | – | – | – | > 200 | – | > 200 | did not exhibit any protease inhibitory and antiviral activity | did not exhibit any protease inhibitory and antiviral activity | did not exhibit any protease inhibitory and antiviral activity | did not exhibit any protease inhibitory and antiviral activity | did not exhibit any protease inhibitory and antiviral activity | did not exhibit any protease inhibitory and antiviral activity | – | – | – |
| GTVTGSILTPIDYGCFNPFLCSVA[X1]GGVIDPIRFPNAWREL (disulfide 15-21) [Compound 3, G-RcsA*-Tyn] | – | no significant cytotoxic effects | – | 37 | – | 69.7 | – | – | – | – | – | – | 5.76 | 9.2 | 3.74 |
